# Molecular target: KRAS G12D (Homo sapiens, UniProt P01116, G12D)
# Experiment: GDP-GTP exchange assay (KRAS_G12D exchange)
# Format: biochemical
# Conditions: bodipy loaded KRAS G12D 2.5 nM; 4 hours incubation after GppNHp-SOS1; read-out: G12D_exchange
# Procedure: Example A. GDP-GTP Exchange Assay
# The inhibitor potency of the exemplified compounds was determined in a fluorescence based guanine nucleotide exchange assay, which measures the exchange of bodipy-GDP (fluorescently labeled GDP) for GppNHp (Non-hydrolyzable GTP analog) to generate the active state of KRAS in the presence of SOS1 (guanine nucleotide exchange factor). Inhibitors were serially diluted in DMSO and a volume of 0.1 μL was transferred to the wells of a black low volume 384-well plate. 5 μL/well volume of bodipy-loaded KRAS G12C diluted to 5 nM in assay buffer (25 mM Hepes pH 7.5, 50 mM NaCl, 10 mM MgCl2 and 0.01% Brij-35) was added to the plate and pre-incubated with inhibitor for 2 hours at ambient temperature. Appropriate controls (enzyme with no inhibitor or with a G12C inhibitor (AMG-510)) were included on the plate. The exchange was initiated by the addition of a 5 μL/well volume containing 1 mM GppNHp and 300 nM SOS1 in assay buffer. The 10 μL/well reaction concentration of the bodipy-loaded KRAS G12C, GppNHp, and SOS1 were 2.5 nM, 500 uM, and 150 nM, respectively. The reaction plates were incubated at ambient temperature for 2 hours, a time estimated for complete GDP-GTP exchange in the absence of inhibitor. For the KRAS G12D and G12V mutants, similar guanine nucleotide exchange assays were used with 2.5 nM as final concentration for the bodipy loaded KRAS proteins and with 4 hours and 3 hours incubation after adding GppNHp-SOS1 mixture for G12D and G12V respectively. A cyclic peptide described to selectively bind G12D mutant (Sakamoto et al., BBRC 484.3 (2017), 605-611) or internal compounds with confirmed binding were used as positive controls in the assay plates. Fluorescence intensities were measured on a PheraStar plate reader instrument (BMG Labtech) with excitation at 485 nm and emission at 520 nm.
# Either GraphPad prism or XLfit was used to analyze the data. The IC50 values were derived by fitting the data to a four parameter logistic equation producing a sigmoidal dose-response curve with a variable Hill coefficient. Prism equation: Y=Bottom+(Top−Bottom)/(1+10^((Log lC50−X)*Hill slope)); XLfit equation: Y=(A+((B−A)/(1+((X/C)^D)))) where X is the logarithm of inhibitor concentration and Y is the response.
# Chain of KRAS G12D (P01116 1-188 isoform P01116-2 G12D): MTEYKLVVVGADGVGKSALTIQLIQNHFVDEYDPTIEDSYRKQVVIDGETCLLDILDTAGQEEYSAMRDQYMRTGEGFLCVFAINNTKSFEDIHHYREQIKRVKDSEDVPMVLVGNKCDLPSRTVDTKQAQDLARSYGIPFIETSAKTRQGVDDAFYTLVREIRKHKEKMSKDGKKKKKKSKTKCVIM
row,IC50 [nM],Structure (SMILES)
1,5000 to 10000,"CN(C)Cc1nc2c(N3CC(N(C)C)C3)nc3c(F)c(-c4cc(O)cc5ccccc45)c(Cl)cc3c2n1[C@H]1[C@H]2CN[C@@H]1C2 (racemic) [Example 49, 4-(1-((endo)-2-azabicyclo[2.1.1]hexan-5-yl)-8-chloro-4-(3-(dimethylamino)-azetidin-1-yl)-2-((dimethylamino)methyl)-6-fluoro-1H-imidazo[4,5-c]quinolin-7-yl)naphthalen-2-ol]"
2,100 to 1000,"CN(C)C(=O)CCc1nc2c(N3CC(N(C)C)C3)nc3c(Cc4ccccc4)c(-c4cc(O)cc5ccccc45)c(CCC#N)cc3c2n1[C@@H]1[C@@H]2CN[C@H]1C2 (racemic) [Example 294, 3-(6-benzyl-1-((endo)-2-azabicyclo[2.1.1]hexan-5-yl)-8-(2-cyanoethyl)-4-(3-(dimethylamino)azetidin-1-yl)-7-(3-hydroxynaphthalen-1-yl)-1H-imidazo[4,5-c]quinolin-2-yl)-N,N-dimethylpropanamide]"
3,100 to 1000,"CN(C)C1CN(c2nc3c(F)c(-c4cc(O)cc5ccccc45)c(C#N)cc3c3c2ncn3[C@H]2[C@H]3CN[C@@H]2C3)C1 (relative stereo) [Example 50, 1-((endo)-2-azabicyclo[2.1.1]hexan-5-yl)-4-(3-(dimethylamino)azetidin-1-yl)-6-fluoro-7-(3-hydroxynaphthalen-1-yl)-1H-imidazo[4,5-c]quinoline-8-carbonitrile]"
4,100 to 1000,"CN(C)C1CN(c2nc3c(F)c(-c4cc(O)cc5ccccc45)c(Cl)cc3c3c2nc(CO)n3[C@H]2[C@H]3CN[C@@H]2C3)C1 (relative stereo) [Example 75, 4-(1-((endo)-2-azabicyclo[2.1.1]hexan-5-yl)-8-chloro-4-(3-(dimethylamino)-azetidin-1-yl)-6-fluoro-2-(hydroxymethyl)-1H-imidazo[4,5-c]quinolin-7-yl)naphthalen-2-ol]"
5,1000 to 5000,"CN(C)C1CN(c2nc3c(F)c(-c4cc(O)cc5ccccc45)c(Cl)cc3c3c2nc(CC2CCNCC2)n3[C@H]2[C@H]3CN[C@@H]2C3)C1 (relative stereo) [Example 77, 4-(1-((endo)-2-azabicyclo[2.1.1]hexan-5-yl)-8-chloro-4-(3-(dimethylamino)azetidin-1-yl)-6-fluoro-2-(piperidin-4-ylmethyl)-1H-imidazo[4,5-c]quinolin-7-yl)naphthalen-2-ol]"
6,100 to 1000,"CN(C)C1CN(c2nc3c(F)c(-c4cc(O)cc5ccccc45)c(Cl)cc3c3c2nc(C2CCS(=O)(=O)CC2)n3[C@H]2[C@H]3CN[C@@H]2C3)C1 (relative stereo) [Example 79, 4-(1-((endo)-2-azabicyclo[2.1.1]hexan-5-yl)-8-chloro-4-(3-(dimethylamino)azetidin-1-yl)-6-fluoro-7-(3-hydroxynaphthalen-1-yl)-1H-imidazo[4,5-c]quinolin-2-yl)tetrahydro-2H-thiopyran 1,1-dioxide]"
7,100 to 1000,"CN(C)C1CN(c2nc3c(F)c(-c4cc(O)cc5ccc(Cl)cc45)c(Cl)cc3c3c2ncn3[C@H]2[C@H]3CN[C@@H]2C3)C1 (single isomer, unassigned) [Example 23a, 4-(1-((endo)-2-azabicyclo[2.1.1]hexan-5-yl)-8-chloro-4-(3-(dimethylamino)azetidin-1-yl)-6-fluoro-1H-imidazo[4,5-c]quinolin-7-yl)-6-chloronaphthalen-2-ol]"
8,5000 to 10000,"CN(C)C1CN(c2nc3c(F)c(-c4cc(O)cc5ccccc45)c(-c4cn[nH]c4)cc3c3c2ncn3[C@H]2[C@H]3CN[C@@H]2C3)C1 (single isomer, unassigned) [Example 25a, 4-(1-((endo)-2-azabicyclo[2.1.1]hexan-5-yl)-4-(3-(dimethylamino)azetidin-1-yl)-6-fluoro-8-(1H-pyrazol-4-yl)-1H-imidazo[4,5-c]quinolin-7-yl)naphthalen-2-ol]"
9,100 to 1000,"Cc1cc2c(nc(N3CC(N(C)C)C3)c3ncn([C@H]4[C@H]5CN[C@@H]4C5)c32)c(F)c1-c1cc(O)cc2ccccc12 (single isomer, unassigned) [Example 34a, 4-(1-((endo)-2-azabicyclo[2.1.1]hexan-5-yl)-4-(3-(dimethyl-amino)azetidin-1-yl)-6-fluoro-8-methyl-1H-imidazo[4,5-c]quinolin-7-yl)naphthalen-2-ol]"
10,1000 to 5000,"Oc1cc(-c2c(Cl)cc3c(nc(N4C5CCC4CNC5)c4ncn([C@H]5[C@H]6CN[C@@H]5C6)c43)c2F)c2ccccc2c1 (single isomer, unassigned) [Example 35a, 4-(1-((endo)-2-azabicyclo[2.1.1]hexan-5-yl)-4-(3,8-diazabicyclo[3.2.1]octan-8-yl)-8-chloro-6-fluoro-1H-imidazo[4,5-c]quinolin-7-yl)naphthalen-2-ol]"
11,100 to 1000,"CN(C)C1CN(c2nc3c(F)c(-c4cc(O)cc5ccccc45)c(Cl)cc3c3c2ncn3[C@H]2[C@H]3CN[C@@H]2C3)C1 (single isomer, unassigned) [Example 48a, 4-(1-((endo)-2-azabicyclo[2.1.1]hexan-5-yl)-8-chloro-4-(3-(dimethylamino)azetidin-1-yl)-6-fluoro-1H-imidazo[4,5-c]quinolin-7-yl)naphthalen-2-ol]"
12,≤ 100,"CN(C)C(=O)CCc1nc2c(N3CC(N(C)C)C3)nc3c(F)c(-c4cccc5ccc(F)cc45)c(CCC#N)cc3c2n1C1C2CNC1C2 (single isomer, unassigned) [Example 291b, 3-(1-((endo)-2-azabicyclo[2.1.1]hexan-5-yl)-8-(2-cyanoethyl)-4-(3-(dimethylamino)azetidin-1-yl)-6-fluoro-7-(7-fluoronaphthalen-1-yl)-1H-imidazo[4,5-c]quinolin-2-yl)-N,N-dimethylpropanamide]"
13,≤ 100,"CCc1nc2c(N3CC(N(C)C)C3)nc3c(F)c(-c4cc(O)cc5ccc(F)cc45)c(CCC#N)cc3c2n1C1C2CNC1C2 (single isomer, unassigned) [Example 292b, 3-(1-((endo)-2-azabicyclo[2.1.1]hexan-5-yl)-4-(3-(dimethylamino)azetidin-1-yl)-2-ethyl-6-fluoro-7-(7-fluoro-3-hydroxynaphthalen-1-yl)-1H-imidazo[4,5-c]quinolin-8-yl)propanenitrile]"
14,100 to 1000,"CNCCc1nc2c(N3CC(N(C)C)C3)nc3c(F)c(-c4cc(O)cc5ccccc45)c(-c4cn[nH]c4)cc3c2n1C1C2CNC1C2 (single isomer, unassigned) [Example 295b, 4-(1-((endo)-2-azabicyclo[2.1.1]hexan-5-yl)-4-(3-(dimethylamino)azetidin-1-yl)-6-fluoro-2-(2-(methylamino)ethyl)-8-(1H-pyrazol-4-yl)-1H-imidazo[4,5-c]quinolin-7-yl)naphthalen-2-ol]"
15,≤ 100,"CCc1nc2c(N3CC(N(C)C)C3)nc3c(F)c(-c4cc(O)cc5ccccc45)c(CCC#N)cc3c2n1C1C2CC1N(Cc1ccc[nH]1)C2 (single isomer, unassigned) [Example 296b, 3-(1-((endo)-2-((1H-pyrrol-2-yl)methyl)-2-azabicyclo[2.1.1]hexan-5-yl)-4-(3-(dimethylamino)azetidin-1-yl)-2-ethyl-6-fluoro-7-(3-hydroxynaphthalen-1-yl)-1H-imidazo[4,5-c]quinolin-8-yl)propanenitrile]"

# Molecular target: KRAS G12C (Homo sapiens, UniProt P01116, G12C)
# Experiment: GDP-GTP exchange assay (KRAS_G12C exchange)
# Format: biochemical
# Conditions: bodipy-GDP loaded KRAS G12C 2.5 nM, SOS1 150 nM, GppNHp; 2 hours pre-incubation, 2 hours reaction; read-out: G12C_exchange
# How it was run: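 Fluorescence exchange of bodipy-GDP for GppNHp, SOS1-driven, read at 485/520 nm; IC50 from four-parameter variable-slope fit. Both mutants used 2.5 nM final labelled protein and a 2 h compound pre-incubation. G12C reaction had 500 uM GppNHp and 150 nM SOS1 for 2 h; G12D ran 4 h.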
# Chain of KRAS G12C (P01116 1-188 isoform P01116-2 G12C): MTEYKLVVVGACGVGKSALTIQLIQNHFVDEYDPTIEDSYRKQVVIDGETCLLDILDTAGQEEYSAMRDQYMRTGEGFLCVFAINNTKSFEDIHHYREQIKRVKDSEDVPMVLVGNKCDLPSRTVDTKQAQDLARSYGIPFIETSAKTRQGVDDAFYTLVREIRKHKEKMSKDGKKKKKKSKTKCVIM
row,IC50 [nM],Structure (SMILES)
1,≤ 100,"C=CC(=O)N1CC[C@H](n2nnc3c(N4CC(N(C)C)C4)nc4c(Cl)c(-c5cccc(Cl)c5OC)c(Cl)cc4c32)C[C@H]1CC#N [Example 290, 2-((2S,4S)-1-acryloyl-4-(6,8-dichloro-7-(3-chloro-2-methoxyphenyl)-4-(3-(dimethylamino)azetidin-1-yl)-1H-[1,2,3]triazolo[4,5-c]quinolin-1-yl)piperidin-2-yl)acetonitrile]"

# Tested on: MIA PaCa-2 (KRAS G12C) cells
# Experiment: Cellular pERK HTRF assay (KRAS_G12C pERK)
# Format: cell-based, human
# Conditions: Homo sapiens, MIA PaCa-2, 4 hours incubation, read-out: G12C_pERK
# How it was run: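 MIA PaCa-2 cells plated overnight, then exposed to compound for 4 h at 37 °C (G12C compounds). Phospho-ERK1/2 measured in lysates by HTRF (665/620 nm) after overnight antibody incubation; IC50 from percent inhibition versus log concentration.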
row,IC50 [nM],Structure (SMILES)
1,≤ 100,"C=CC(=O)N1CC[C@H](n2nnc3c(N4CC(N(C)C)C4)nc4c(Cl)c(-c5cccc(Cl)c5OC)c(Cl)cc4c32)C[C@H]1CC#N [Example 290, 2-((2S,4S)-1-acryloyl-4-(6,8-dichloro-7-(3-chloro-2-methoxyphenyl)-4-(3-(dimethylamino)azetidin-1-yl)-1H-[1,2,3]triazolo[4,5-c]quinolin-1-yl)piperidin-2-yl)acetonitrile]"
